In patent US11248020B2, “Oligonucleotide compositions and methods for treating diseases” (priority 2017, dated 2022):

Key:
Alzheimer's Disease = experiment: Alzheimer's disease patients scored by MMSE and ADAScog; assay type: in vivo, human; settings: average values per group
Method: In the first control group, the patients received conventional therapy, i.e., a reversible, noncompetitive glutamate receptors antagonist Memantine (10 mg per day). In the second control group the patients received placebo. Test group #4, and Test group #5 received compositions #4 and 5, respectively, in the form of extended release sublingual tablets (also comprising 12% hypromellose; 10% lactose monohydrate; 60% carbopol; 8% Polycarbophil; 10% starch-based gel) used 2 time a day. The patients were scored according to MMSE (Mini-Mental State Examination) and ADAScog (assessment of cognitive impairment) scales. 12 groups of 4 people were formed.

colon cancer = experiment: Azoxymethane colon cancer model in rats after total colectomy: recurrences, metastases, survival; assay type: in vivo, male albino Wistar rats
Method: The studies were performed in male albino Wistar rats (Rappolovo breeding nursery), aged 14 weeks, weighing 180-190 g. Prior to the study period, animals (n=600) were kept in identical conditions, and received the same diet. For modeling colon cancer, the animals received Azoxymethane (Sigma) in the amount of 10 mg/kg (in 0.9% NaCl) for 12 weeks. In 26 weeks, the abdomen of anesthetized animals was opened, and the presence and size of colon tumors and metastases was visually assessed. Animals bearing neoplasms of more than 3 mm in diameter and having no observed metastases (360 animals) were subjected to total colectomy. In 2 days after surgery, mono- and/or oligonucleotide mixtures were administered either parenterally (via IV) or enterally (with drinking water). Each group consisted of 20 animals. In 8 weeks, surviving animals were sacrificed (animals were randomized into groups with 10 surviving animals per group), and the recurrence rates and presence of metastases was evaluated.
Enteral Administration The first control group received no treatment. Test group #1, Test group #2, Test group #3, Test group #4, Test group #5, and Test group #6 received mixtures of mono- and/or oligonucleotides (from 1 to 100,000 mcg/kg/day) prepared with the use of different nucleases, as specified in Table 2, below:
The first control group received no treatment. The second control group received conventional therapy consisting of 5-fluorouracil (5 mg/kg/day). Test group #1, Test group #2, Test group #3, Test group #4, and Test group #5 were administered (from 1 to 100,000 mcg/kg/day for 30 days).

[1] = enteral administration (with drinking water), evaluated in 8 weeks
[2] = parenteral administration (via IV), 30 days

Structure (SMILES)	Patients score ADAScog (Alzheimer's Disease; in 30 days)	Patients score MMSE (Alzheimer's Disease; in 30 days)	Patients score ADAScog (Alzheimer's Disease; in 90 days)	Patients score MMSE (Alzheimer's Disease; in 90 days)	Patients score ADAScog (Alzheimer's Disease; pre-treatment)	Patients score MMSE (Alzheimer's Disease; pre-treatment)	No. of animals in the group with recurrences or metastases (colon cancer; [1])	No. of animals with metastasis (colon cancer; [1])	No. of surviving animals/Total No. per group (colon cancer; enteral administration (with drinking water), in 8 weeks)	No. of animals in the group with recurrences or metastases (colon cancer; [2])	No. of animals with metastasis (colon cancer; [2])	No. of surviving animals/Total No. of animals per group (colon cancer; [2])
CC12CC3CC(C)(C1)CC(N)(C3)C2 [1st control group, Memantine]	37	15	37	16	41	13	–	–	–	–	–	–
O=c1[nH]cc(F)c(=O)[nH]1 [2nd control, 5-fluorouracil]	–	–	–	–	–	–	4	7	13/20	4	6	14/20
